Experimental data: article PMC11705217, “Substrate preference, RNA binding and active site versatility of Stenotrophomonas maltophilia nuclease SmNuc1, explained by a structural study” (The Febs Journal, 2024)

Target: T1, SmNuc1 (SmNuc1WT) (Stenotrophomonas maltophilia, UniProt B2FSF8)
T1 construct: gene Smlt3806; mature enzyme of 246 residues, 28 kDa, N-terminal Trp27 (native signal removed, expressed with MalE signal peptide), C-terminal His-tag kept, pET303/CT-His, E. coli Lemo21(DE3); three Zn2+ in active site
Assay: in crystallo cleavage (crystal soak, […]), X-ray structure shows product […]'-GMP
Format: biochemical
Conditions: pH 6.5; only product 5'-GMP seen in structure 9EMG

**Q.** How did the “in crystallo cleavage (crystal soak, 5 mM), X-ray structure shows product 5'-GMP” value turn out when Nc1nc2c(ncn2[C@@H]2O[C@@H]3COP(=O)(O)O[C@H]4[C@@H](O)[C@H](n5cnc6c(=O)[nH]c(N)nc65)O[C@@H]4COP(=O)(O)O[C@H]3[C@H]2O)c(=O)[nH]1 [c‐di‐GMP] was run?
**A.** c‐di‐GMP was soaked into a crystal of SmNuc1, resulting in the SmNuc1:GMP* structure
